The series is described as follows: Myelin figure formation on exposing the lipids-mimicking substrate to surfactant (microscopy). As to conditions: aqueous solution 5.0 mg/cm^3, 25° C., 6 hours, lipid membrane 50 μm. Here is the method:
Multiple substrates mimicking intercellular lipids in stratum corneum, each having a lipid membrane controlled to a thickness of 50 μm were exposed to an aqueous solution (5.0 mg/cm^3) of SDS (99.0%) (Nacalai Tesque, Inc., Kyoto, Japan) at a temperature of 25° C. for 6 hours. Each exposed substrate was rinsed with a small amount of water and dried, and used for the following evaluation test.
Upon examination of surfactants other than SDS, a myelin figure was formed with some and not formed with others. For each of the examined surfactants, the shortest distance from the edge of the substrate to the tip of the myelin figure (hereunder referred to as “myelin figure formation distance”) was measured.

Regarding `CCCCCCCCCCCCOS(=O)(=O)[O-].[Na+]` [SDS], the myelin figure formation entry is “formation of a myelin figure within a constant range”.
